Data from patent publication US12371454B2, “Cyclic peptide compound having Kras inhibitory action” (priority 2019, dated 2025).
Positions of bridges follow the written chain, without caps; N, C: chain ends. Non-standard residues stand in square brackets, D forms with d. Residues, ends and D or L forms follow the SMILES beside them. *: point of attachment. hPhe(3,5-F2-4-CF3) = N[C@@H](CCc1cc(F)c(C(F)(F)F)c(F)c1)C(=O)O; hPhe(3-Cl-4-CF3) = N[C@@H](CCc1ccc(C(F)(F)F)c(Cl)c1)C(=O)O; Piperazinyl(4-(3-oxetanyl)) = C1OCC1N1CCN(*)CC1; 3Oxa8azabicyclo(3.2.1)octane = C1CC2COCC1N2*; NMeAbu(4,4,4-F3) = CN[C@@H](CC(F)(F)F)C(=O)O; NMePhe(4-Me) = CN[C@@H](Cc1ccc(C)cc1)C(=O)O; NMeGly(cPent) = CN[C@H](C(=O)O)C1CCCC1; NMeGly(cBu) = CN[C@H](C(=O)O)C1CCC1; NMeCha = CN[C@@H](CC1CCCCC1)C(=O)O; NEtLeu = CCN[C@@H](CC(C)C)C(=O)O; NMeCba = CN[C@@H](CC1CCC1)C(=O)O; NMeChg = CN[C@H](C(=O)O)C1CCCCC1; NMeI = CC[C@H](C)[C@H](NC)C(=O)O; Piperidide(4-Me) = CC1CCN(*)CC1; NMeD = CN[C@@H](CC(=O)O)C(=O)O; NMeL = CN[C@@H](CC(C)C)C(=O)O; Oxazolidin(3-yl) = C1CN(*)CO1; NMeNva = CCC[C@H](NC)C(=O)O; NMeV = CN[C@H](C(=O)O)C(C)C; d(β3hA) = C[C@@H](N)CC(=O)O; dIva = CC[C@@](C)(N)C(=O)O; NMeS = CN[C@@H](CO)C(=O)O; Morpholide = C1CN(*)CCO1; NMeA = CN[C@@H](C)C(=O)O; Piperidide = C1CCN(*)CC1; Pyrrolidide = C1CCN(*)C1; Ac5c = NC1(C(=O)O)CCCC1; Aze = O=C(O)[C@@H]1CCN1; X1 = FC1(F)CN(*)CC1(F)F; Isopentyl = CC(C)CC*; X14 = CC1(C)CCN(*)C1; NEtG = CCNCC(=O)O; Sar = CNCC(=O)O

Columns and labels:
[1] = tested on: Human pancreatic cancer cell line AsPC-1; assay: Measurement of AsPC-1 cell growth inhibition (AsPC-1 CGI); assay type: cell-based; settings: 96 h
Summary of the method: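 AsPC-1 cells in 15% FBS RPMI-1640 were exposed to test compound for 96 hours at 37° C, with CellTiter-Glo as endpoint.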

[2] = target: T1, Kras and SOS1 (biotin-tagged human Kras loaded with GDP, His-tagged human SOS1) (Homo sapiens, UniProt P01116, G12D); assay: Protein-protein interaction inhibition between Kras and SOS1 (KrasGl2D-SOS PPI) using AlphaScreen; assay type: binding; settings: AlphaScreen; biotin-tagged human Kras loaded with GDP, His-tagged human SOS1; read-out: KRAS G12D-SOS PPI IC50
T1 construct: made in house; host or cells: E. coli (stated for Kras only)
T1 sequence (P01116 1-188 isoform P01116-2 G12D): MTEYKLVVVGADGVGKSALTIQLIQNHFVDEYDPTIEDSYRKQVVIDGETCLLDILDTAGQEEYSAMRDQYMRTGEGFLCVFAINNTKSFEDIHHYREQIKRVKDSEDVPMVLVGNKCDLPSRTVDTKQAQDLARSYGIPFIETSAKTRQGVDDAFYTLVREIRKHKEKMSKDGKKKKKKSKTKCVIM
Summary of the method: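 AlphaScreen format: Ni donor beads capture His-SOS1, streptavidin acceptor beads capture biotinylated Kras (E. coli-expressed, GDP-loaded post-purification). Excite 680 nm, read 520-620 nm.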

SMILES	IC50 [1]	IC50 [2]
CC[C@H](C)[C@@H]1NC(=O)[C@H](COCCC(C)C)N(C)C(=O)C[C@@H](C(=O)N2CCCCC2)N(C)C(=O)[C@H](C2CCCCC2)N(C)C(=O)C2(CCCC2)NC(=O)[C@@H]2CCCN2C(=O)[C@H](CCc2ccc(C(F)(F)F)c(Cl)c2)NC(=O)CN(C)C(=O)[C@H](CC2CCCCC2)N(C)C(=O)CN(C)C(=O)CN(C)C1=O [Compound 1115] ([NMeS](Isopentyl)I[Sar][Sar][NMeCha][Sar][hPhe(3-Cl-4-CF3)]P[Ac5c][NMeChg][NMeD]-Piperidide; lactam N-11)	100 to 500 nM	2.5 nM
CC[C@H](C)[C@@H]1NC(=O)[C@H](CC(C)C)N(C)C(=O)C[C@@H](C(=O)N2CCCCC2)N(C)C(=O)[C@H](C(C)C)N(C)C(=O)C2(CCCC2)NC(=O)[C@@H]2CCCN2C(=O)[C@H](CCc2ccc(C(F)(F)F)c(Cl)c2)NC(=O)CN(C)C(=O)[C@H](CC2CCC2)N(C)C(=O)CN(C)C(=O)CN(C)C1=O [Compound 1124] ([NMeL]I[Sar][Sar][NMeCba][Sar][hPhe(3-Cl-4-CF3)]P[Ac5c][NMeV][NMeD]-Piperidide; lactam N-11)	100 to 500 nM	7 nM
CC[C@H](C)[C@@H]1NC(=O)[C@H](CC(C)C)N(C)C(=O)C[C@@H](C(=O)N2CCCCC2)N(C)C(=O)[C@H](C2CCC2)N(C)C(=O)C2(CCCC2)NC(=O)[C@@H]2CCCN2C(=O)[C@H](CCc2ccc(C(F)(F)F)c(Cl)c2)NC(=O)CN(C)C(=O)[C@H](CC2CCCCC2)N(C)C(=O)CN(C)C(=O)CN(C)C1=O [Compound 1128] ([NMeL]I[Sar][Sar][NMeCha][Sar][hPhe(3-Cl-4-CF3)]P[Ac5c][NMeGly(cBu)][NMeD]-Piperidide; lactam N-11)	100 to 500 nM	2.1 nM
CC[C@H](C)[C@@H]1NC(=O)[C@H](CC(C)C)N(C)C(=O)C[C@@H](C(=O)N2CCCCC2)N(C)C(=O)[C@H](C(C)C)N(C)C(=O)[C@@](C)(CC)NC(=O)[C@@H]2CCCN2C(=O)[C@H](CCc2ccc(C(F)(F)F)c(Cl)c2)NC(=O)CN(C)C(=O)[C@H](CC2CCCCC2)N(C)C(=O)CN(C)C(=O)CN(C)C1=O [Compound 1130] ([NMeL]I[Sar][Sar][NMeCha][Sar][hPhe(3-Cl-4-CF3)]P[dIva][NMeV][NMeD]-Piperidide; lactam N-11)	100 to 500 nM	4.4 nM
CC[C@H](C)[C@@H]1NC(=O)[C@H](CC(C)C)N(C)C(=O)C[C@@H](C(=O)N2CCC(C)(C)C2)N(C)C(=O)[C@H](C2CCCCC2)N(C)C(=O)C2(CCCC2)NC(=O)[C@@H]2CCCN2C(=O)[C@H](CCc2ccc(C(F)(F)F)c(Cl)c2)NC(=O)CN(C)C(=O)[C@H](CC2CCCCC2)N(C)C(=O)CN(C)C(=O)CN(C)C1=O [Compound 1150] ([NMeL]I[Sar][Sar][NMeCha][Sar][hPhe(3-Cl-4-CF3)]P[Ac5c][NMeChg][NMeD]-X14; lactam N-11)	50 to 100 nM	0.52 nM
CC[C@H](C)[C@@H]1NC(=O)[C@H](CC(C)C)N(C)C(=O)C[C@@H](C)NC(=O)[C@H](C2CCCC2)N(C)C(=O)C2(CCCC2)NC(=O)[C@H](C)N(C)C(=O)[C@H](CCc2ccc(C(F)(F)F)c(Cl)c2)NC(=O)CN(C)C(=O)[C@H](Cc2ccc(C)cc2)N(C)C(=O)[C@@H]2CCN2C(=O)[C@H](C)N(C)C1=O [Compound 1153] (cyclo([Ac5c][NMeGly(cPent)][d(β3hA)][NMeL]I[NMeA][Aze][NMePhe(4-Me)][Sar][hPhe(3-Cl-4-CF3)][NMeA]))	100 to 500 nM	2.5 nM
CC[C@H](C)[C@@H]1NC(=O)[C@H](CC(C)C)N(C)C(=O)C[C@@H](C(=O)N2CCC(C)CC2)NC(=O)[C@H]([C@@H](C)CC)N(C)C(=O)C2(CCCC2)NC(=O)[C@@H]2CCCN2C(=O)[C@H](CCc2ccc(C(F)(F)F)c(Cl)c2)NC(=O)CN(C)C(=O)[C@H](CC2CCCCC2)N(C)C(=O)CN(C)C(=O)CN(C)C1=O [Compound 1172] ([NMeL]I[Sar][Sar][NMeCha][Sar][hPhe(3-Cl-4-CF3)]P[Ac5c][NMeI]D-{Piperidide(4-Me)}; lactam N-11)	100 to 500 nM	6.8 nM
CC[C@H](C)[C@@H]1NC(=O)[C@H](CC(C)C)N(C)C(=O)C[C@@H](C(=O)N2CCOCC2)N(C)C(=O)[C@H](C(C)C)N(C)C(=O)C2(CCCC2)NC(=O)[C@@H]2CCCN2C(=O)[C@H](CCc2ccc(C(F)(F)F)c(Cl)c2)NC(=O)CN(C)C(=O)[C@H](CC2CCCCC2)N(C)C(=O)[C@@H]2CCN2C(=O)[C@H](C)N(C)C1=O [Compound 1178] ([NMeL]I[NMeA][Aze][NMeCha][Sar][hPhe(3-Cl-4-CF3)]P[Ac5c][NMeV][NMeD]-Morpholide; lactam N-11)	50 to 100 nM	1 nM
CC[C@H](C)[C@@H]1NC(=O)[C@H](CC(C)C)N(C)C(=O)C[C@@H](C(=O)N2CCOC2)N(C)C(=O)[C@H](C2CCCCC2)N(C)C(=O)C2(CCCC2)NC(=O)[C@@H]2CCCN2C(=O)[C@H](CCc2ccc(C(F)(F)F)c(Cl)c2)NC(=O)CN(C)C(=O)[C@H](CC2CCCCC2)N(C)C(=O)CN(C)C(=O)CN(C)C1=O [Compound 1180] ([NMeL]I[Sar][Sar][NMeCha][Sar][hPhe(3-Cl-4-CF3)]P[Ac5c][NMeChg][NMeD]-{Oxazolidin(3-yl)}; lactam N-11)	50 to 100 nM	0.5 nM
CC[C@H](C)[C@@H]1NC(=O)[C@H](CC(C)C)N(C)C(=O)C[C@@H](C(=O)N2CCN(C3COC3)CC2)N(C)C(=O)[C@H](C(C)C)N(C)C(=O)C2(CCCC2)NC(=O)[C@@H]2CCCN2C(=O)[C@H](CCc2ccc(C(F)(F)F)c(Cl)c2)NC(=O)CN(C)C(=O)[C@H](CC2CCCCC2)N(C)C(=O)[C@@H]2CCN2C(=O)[C@H](C)N(C)C1=O [Compound 1181] ([NMeL]I[NMeA][Aze][NMeCha][Sar][hPhe(3-Cl-4-CF3)]P[Ac5c][NMeV][NMeD]-{Piperazinyl(4-(3-oxetanyl))}; lactam N-11)	100 to 500 nM	6 nM
CC[C@H](C)[C@@H]1NC(=O)[C@H](CC(C)C)N(CC)C(=O)C[C@@H](C(=O)N2CCOCC2)N(C)C(=O)[C@H](C2CCCCC2)N(C)C(=O)C2(CCCC2)NC(=O)[C@@H]2CCCN2C(=O)[C@H](CCc2ccc(C(F)(F)F)c(Cl)c2)NC(=O)CN(C)C(=O)[C@H](CC2CCCCC2)N(C)C(=O)CN(C)C(=O)CN(C)C1=O [Compound 1189] ([NEtLeu]I[Sar][Sar][NMeCha][Sar][hPhe(3-Cl-4-CF3)]P[Ac5c][NMeChg][NMeD]-Morpholide; lactam N-11)	50 to 100 nM	0.74 nM
CCC[C@H]1C(=O)N[C@@H]([C@@H](C)CC)C(=O)N(C)CC(=O)N(C)CC(=O)N(C)[C@@H](Cc2ccc(C)cc2)C(=O)N(C)CC(=O)N[C@@H](CCc2cc(F)c(C(F)(F)F)c(F)c2)C(=O)N2CCC[C@H]2C(=O)NC2(CCCC2)C(=O)N(C)[C@@H](C2CCCCC2)C(=O)N(C)[C@H](C(=O)N2CCCC2)CC(=O)N1C [Compound 1197] ([NMeNva]I[Sar][Sar][NMePhe(4-Me)][Sar][hPhe(3,5-F2-4-CF3)]P[Ac5c][NMeChg][NMeD]-Pyrrolidide; lactam N-11)	20 to 50 nM	0.6 nM
CC[C@H](C)[C@@H]1NC(=O)[C@H](CC(C)C)N(C)C(=O)C[C@@H](C(=O)N2CCCCC2)N(C)C(=O)[C@H](C2CCCCC2)N(C)C(=O)C2(CCCC2)NC(=O)[C@@H]2CCCN2C(=O)[C@H](CCc2ccc(C(F)(F)F)c(Cl)c2)NC(=O)CN(CC)C(=O)[C@H](CC2CCCCC2)N(C)C(=O)CN(C)C(=O)CN(C)C1=O [Compound 1203] ([NMeL]I[Sar][Sar][NMeCha][NEtG][hPhe(3-Cl-4-CF3)]P[Ac5c][NMeChg][NMeD]-Piperidide; lactam N-11)	100 to 500 nM	2.1 nM
CC[C@H](C)[C@@H]1NC(=O)[C@H](CC(C)C)N(C)C(=O)C[C@@H](C(=O)N2CC(F)(F)C(F)(F)C2)N(C)C(=O)[C@H](C2CCCCC2)N(C)C(=O)C2(CCCC2)NC(=O)[C@@H]2CCCN2C(=O)[C@H](CCc2ccc(C(F)(F)F)c(Cl)c2)NC(=O)CN(C)C(=O)[C@H](CC2CCCCC2)N(C)C(=O)CN(C)C(=O)CN(C)C1=O [Compound 1207] ([NMeL]I[Sar][Sar][NMeCha][Sar][hPhe(3-Cl-4-CF3)]P[Ac5c][NMeChg][NMeD]-X1; lactam N-11)	100 to 500 nM	2.7 nM
CC[C@H](C)[C@@H]1NC(=O)[C@H](CC(C)C)N(C)C(=O)C[C@@H](C(=O)N2CCCCC2)N(C)C(=O)[C@H](C2CCCCC2)N(C)C(=O)C2(CCCC2)NC(=O)[C@@H]2CCCN2C(=O)[C@H](CCc2ccc(C(F)(F)F)c(Cl)c2)NC(=O)CN(C)C(=O)[C@H](CC2CCCCC2)N(C)C(=O)CN(CC)C(=O)CN(C)C1=O [Compound 1227] ([NMeL]I[Sar][NEtG][NMeCha][Sar][hPhe(3-Cl-4-CF3)]P[Ac5c][NMeChg][NMeD]-Piperidide; lactam N-11)	100 to 500 nM	1.3 nM
CC[C@H](C)[C@@H]1NC(=O)[C@H](CC(F)(F)F)N(C)C(=O)C[C@@H](C(=O)N2CCCC2)N(C)C(=O)[C@H](C2CCCCC2)N(C)C(=O)C2(CCCC2)NC(=O)[C@@H]2CCCN2C(=O)[C@H](CCc2cc(F)c(C(F)(F)F)c(F)c2)NC(=O)CN(C)C(=O)[C@H](CC2CCCCC2)N(C)C(=O)CN(C)C(=O)CN(C)C1=O [Compound 1228] ([NMeAbu(4,4,4-F3)]I[Sar][Sar][NMeCha][Sar][hPhe(3,5-F2-4-CF3)]P[Ac5c][NMeChg][NMeD]-Pyrrolidide; lactam N-11)	20 to 50 nM	0.59 nM
CC[C@H](C)[C@@H]1NC(=O)[C@H](CC(C)C)N(C)C(=O)C[C@@H](C(=O)N2C3CCC2COC3)N(C)C(=O)[C@H](C(C)C)N(C)C(=O)C2(CCCC2)NC(=O)[C@@H]2CCCN2C(=O)[C@H](CCc2ccc(C(F)(F)F)c(Cl)c2)NC(=O)CN(C)C(=O)[C@H](CC2CCCCC2)N(C)C(=O)[C@@H]2CCN2C(=O)[C@H](C)N(C)C1=O [Compound 1235] ([NMeL]I[NMeA][Aze][NMeCha][Sar][hPhe(3-Cl-4-CF3)]P[Ac5c][NMeV][NMeD]-{3Oxa8azabicyclo(3.2.1)octane}; lactam N-11)	100 to 500 nM	5.5 nM
